The source made the active and inactive calls. No cut-off for these calls is given here.
Key:
Candida albicans = experiment: Antimicrobial activity against Candida albicans MTCC 227 assessed as inhibition of visual microbial growth incubated for 48 to 72 hrs at 28 degC; type: functional
Malassezia pachydermatis = experiment: Antimicrobial activity against Malassezia pachydermatis assessed as inhibition of visual microbial growth incubated for 48 to 72 hrs at 28 degC; type: functional
Proteus vulgaris = experiment: Antimicrobial activity against Proteus vulgaris MTCC 1771 assessed as inhibition of visual microbial growth incubated for 24 hrs at 37 degC; type: functional
Klebsiella aerogenes = experiment: Antimicrobial activity against Enterobacter aerogenes MTCC 111 assessed as inhibition of visual microbial growth incubated for 24 hrs at 37 degC; type: functional
Staphylococcus aureus [1] = experiment: Antimicrobial activity against methicillin-resistant Staphylococcus aureus assessed as inhibition of visual microbial growth incubated for 24 hrs at 37 degC; type: functional
Micrococcus luteus = experiment: Antimicrobial activity against Micrococcus luteus MTCC 106 assessed as inhibition of visual microbial growth incubated for 24 hrs at 37 degC; type: functional; conditions: MTCC 106, 24 h
Klebsiella pneumoniae = experiment: Antimicrobial activity against Klebsiella pneumoniae MTCC 109 assessed as inhibition of visual microbial growth incubated for 24 hrs at 37 degC; type: functional; conditions: MTCC 109, 24 h
Shigella flexneri = experiment: Antimicrobial activity against Shigella flexneri MTCC 1457 assessed as inhibition of visual microbial growth incubated for 24 hrs at 37 degC; type: functional
Staphylococcus aureus [2] = experiment: Antimicrobial activity against Staphylococcus aureus MTCC 96 assessed as inhibition of visual microbial growth incubated for 24 hrs at 37 degC; type: functional; conditions: MTCC 96, 24 h
Salmonella typhimurium = experiment: Antimicrobial activity against Salmonella typhimurium MTCC 1251 assessed as inhibition of visual microbial growth incubated for 24 hrs at 37 degC; type: functional, Salmonella enterica subsp. enterica serovar Typhimurium; conditions: Salmonella enterica, MTCC 1251, 24 h

Row | Molecule | MIC (Candida albicans) | MIC (Malassezia pachydermatis) | MIC (Proteus vulgaris; MTCC 1771, 24 h) | MIC (Klebsiella aerogenes; MTCC 111, 24 h) | MIC (Staphylococcus aureus [1]) | MIC (Micrococcus luteus) | MIC (Klebsiella pneumoniae) | MIC (Shigella flexneri; MTCC 1457, 24 h) | MIC (Staphylococcus aureus [2]) | MIC (Salmonella typhimurium) | MIC (Klebsiella aerogenes) | MIC (Proteus vulgaris) | MIC (Shigella flexneri)
1 | Clc1ccc(-c2csc(N3N=C(c4cccs4)CC3c3cc4c(cc3Br)OCO4)n2)cc1 (stereo not given) | 125 µg/mL | 125 µg/mL | 250 µg/mL | 125 µg/mL | 62.5 µg/mL | 31.2 µg/mL | 31.2 µg/mL | 125 µg/mL | 125 µg/mL | 62.5 µg/mL | – | – | –
2 | N#Cc1cccc(-c2csc(N3N=C(c4cccs4)CC3c3ccc4c(c3)OCO4)n2)c1 (stereo not given) | 125 µg/mL | 250 µg/mL | 250 µg/mL | 125 µg/mL | 62.5 µg/mL | 31.2 µg/mL | 62.5 µg/mL | 125 µg/mL | 31.2 µg/mL | 62.5 µg/mL | – | – | –
3 | N#Cc1cccc(-c2csc(N3N=C(c4cccs4)CC3c3cc4c(cc3Br)OCO4)n2)c1 (stereo not given) | 62.5 µg/mL | 125 µg/mL | 31.2 µg/mL | 62.5 µg/mL | 62.5 µg/mL | 31.2 µg/mL | 62.5 µg/mL | 62.5 µg/mL | 31.2 µg/mL | 31.2 µg/mL | – | – | –
4 | Cc1ccc(-c2csc(N3N=C(c4cccs4)CC3c3ccc4c(c3)OCO4)n2)cc1 (stereo not given) | 125 µg/mL | 500 µg/mL | 500 µg/mL | – | 250 µg/mL | 500 µg/mL | 125 µg/mL | 250 µg/mL | 250 µg/mL | 125 µg/mL | inactive | – | –
5 | Brc1cc2c(cc1C1CC(c3cccs3)=NN1c1nc(-c3ccccc3)cs1)OCO2 (stereo not given) | 125 µg/mL | 125 µg/mL | 62.5 µg/mL | 62.5 µg/mL | 250 µg/mL | 125 µg/mL | 250 µg/mL | 250 µg/mL | 125 µg/mL | 125 µg/mL | – | – | –
6 | Fc1cc(-c2csc(N3N=C(c4cccs4)CC3c3cc4c(cc3Br)OCO4)n2)ccc1Cl (stereo not given) | 500 µg/mL | 500 µg/mL | 125 µg/mL | 250 µg/mL | 250 µg/mL | 125 µg/mL | 125 µg/mL | 125 µg/mL | 125 µg/mL | 125 µg/mL | – | – | –
7 | Fc1ccccc1-c1csc(N2N=C(c3cccs3)CC2c2cc3c(cc2Br)OCO3)n1 (stereo not given) | 125 µg/mL | 500 µg/mL | 500 µg/mL | 250 µg/mL | 250 µg/mL | 125 µg/mL | 250 µg/mL | 250 µg/mL | 250 µg/mL | 125 µg/mL | – | – | –
8 | Fc1ccc(-c2csc(N3N=C(c4cccs4)CC3c3cc4c(cc3Br)OCO4)n2)cc1 (stereo not given) | 250 µg/mL | 500 µg/mL | – | 250 µg/mL | inactive | 125 µg/mL | 500 µg/mL | 250 µg/mL | 250 µg/mL | 250 µg/mL | – | inactive | –
9 | Fc1cc(Cl)ccc1-c1csc(N2N=C(c3cccs3)CC2c2ccc3c(c2)OCO3)n1 (stereo not given) | 250 µg/mL | 250 µg/mL | 500 µg/mL | 250 µg/mL | 125 µg/mL | 250 µg/mL | 125 µg/mL | 125 µg/mL | 250 µg/mL | 125 µg/mL | – | – | –
10 | Clc1ccc(-c2csc(N3N=C(c4cccs4)CC3c3ccc4c(c3)OCO4)n2)cc1 (stereo not given) | 500 µg/mL | 500 µg/mL | 125 µg/mL | 250 µg/mL | 250 µg/mL | 250 µg/mL | 62.5 µg/mL | 250 µg/mL | 125 µg/mL | 250 µg/mL | – | – | –
11 | OC(Cn1cncn1)(Cn1cncn1)c1ccc(F)cc1F [FLUCONAZOLE] | – | 24 µg/mL | – | – | – | – | – | – | – | – | – | – | –
12 | N#Cc1ccc(-c2csc(N3N=C(c4cccs4)CC3c3cc4c(cc3Br)OCO4)n2)cc1 (stereo not given) | 125 µg/mL | 125 µg/mL | 62.5 µg/mL | 125 µg/mL | 125 µg/mL | 62.5 µg/mL | 125 µg/mL | 125 µg/mL | 62.5 µg/mL | 125 µg/mL | – | – | –
13 | Fc1ccc(-c2csc(N3N=C(c4cccs4)CC3c3ccc4c(c3)OCO4)n2)cc1 (stereo not given) | 125 µg/mL | 250 µg/mL | 500 µg/mL | 125 µg/mL | 250 µg/mL | 250 µg/mL | 250 µg/mL | 250 µg/mL | 500 µg/mL | 500 µg/mL | – | – | –
14 | Fc1ccccc1-c1csc(N2N=C(c3cccs3)CC2c2ccc3c(c2)OCO3)n1 (stereo not given) | 500 µg/mL | 500 µg/mL | 500 µg/mL | 500 µg/mL | 250 µg/mL | 125 µg/mL | 500 µg/mL | – | 250 µg/mL | 250 µg/mL | – | – | inactive
15 | c1ccc(-c2csc(N3N=C(c4cccs4)CC3c3ccc4c(c3)OCO4)n2)cc1 (stereo not given) | 250 µg/mL | 500 µg/mL | 500 µg/mL | 250 µg/mL | 500 µg/mL | 250 µg/mL | 500 µg/mL | 500 µg/mL | 500 µg/mL | 250 µg/mL | – | – | –
16 | Cc1ccc(-c2csc(N3N=C(c4cccs4)CC3c3cc4c(cc3Br)OCO4)n2)cc1 (stereo not given) | 125 µg/mL | 250 µg/mL | 125 µg/mL | 125 µg/mL | 250 µg/mL | 62.5 µg/mL | 62.5 µg/mL | 125 µg/mL | 62.5 µg/mL | 62.5 µg/mL | – | – | –
17 | CC(=O)N1CCN(c2ccc(OCC3COC(Cn4ccnc4)(c4ccc(Cl)cc4Cl)O3)cc2)CC1 (stereo not given) [KETOCONAZOLE] | 25 µg/mL | – | – | – | – | – | – | – | – | – | – | – | –
18 | O=[N+]([O-])c1ccc(-c2csc(N3N=C(c4cccs4)CC3c3cc4c(cc3Br)OCO4)n2)cc1 (stereo not given) | 125 µg/mL | 500 µg/mL | 125 µg/mL | 250 µg/mL | 62.5 µg/mL | 125 µg/mL | 250 µg/mL | 250 µg/mL | 250 µg/mL | 62.5 µg/mL | – | – | –
19 | Fc1cc(Cl)ccc1-c1csc(N2N=C(c3cccs3)CC2c2cc3c(cc2Br)OCO3)n1 (stereo not given) | 62.5 µg/mL | 125 µg/mL | 62.5 µg/mL | 125 µg/mL | 62.5 µg/mL | 125 µg/mL | 62.5 µg/mL | 62.5 µg/mL | 125 µg/mL | 31.2 µg/mL | – | – | –
20 | Fc1cc(-c2csc(N3N=C(c4cccs4)CC3c3ccc4c(c3)OCO4)n2)ccc1Cl (stereo not given) | 125 µg/mL | 500 µg/mL | 500 µg/mL | 125 µg/mL | 250 µg/mL | 62.5 µg/mL | 250 µg/mL | 125 µg/mL | 500 µg/mL | 500 µg/mL | – | – | –
21 | GENTAMICIN | – | – | – | – | – | – | – | – | – | – | – | 32 µg/mL | –
22 | O=[N+]([O-])c1ccc(-c2csc(N3N=C(c4cccs4)CC3c3ccc4c(c3)OCO4)n2)cc1 (stereo not given) | 250 µg/mL | 500 µg/mL | – | 500 µg/mL | inactive | 250 µg/mL | 500 µg/mL | 500 µg/mL | 500 µg/mL | 500 µg/mL | – | inactive | –
23 | CN[C@@H]1[C@H](O[C@H]2[C@H](O[C@H]3[C@H](O)[C@@H](O)[C@H](N=C(N)N)[C@@H](O)[C@@H]3N=C(N)N)O[C@@H](C)[C@]2(O)C=O)O[C@@H](CO)[C@H](O)[C@H]1O [STREPTOMYCIN] | – | – | – | 25 µg/mL | 6.25 µg/mL | 6.25 µg/mL | 6.25 µg/mL | 6.25 µg/mL | 6.25 µg/mL | 30 µg/mL | – | – | –
24 | N#Cc1ccc(-c2csc(N3N=C(c4cccs4)CC3c3ccc4c(c3)OCO4)n2)cc1 (stereo not given) | 125 µg/mL | 500 µg/mL | 125 µg/mL | 250 µg/mL | 250 µg/mL | 125 µg/mL | 250 µg/mL | 250 µg/mL | 125 µg/mL | 125 µg/mL | – | – | –

Source: ChEMBL document CHEMBL3588812, “Thiophene and benzodioxole appended thiazolyl-pyrazoline compounds: Microwave assisted synthesis, antimicrobial and molecular docking studies” (2015)
